Experimental data published in US20160039778A1, “TRPV-1 RECEPTOR ANTAGONIST COMPOUND DERIVED FROM 1,3,4-THIADIAZOLE ALKYLAMIDES AND CHALCONES” (UNIVERSIDAD DE CONCEPCION, priority 2012, published 2016).
Read-outs that look alike come from different tables or passages of the source.

How the values were obtained:
rat TRPV-1 receptor = target: T1, rat TRPV-1 receptor (Rattus norvegicus, UniProt O35433); experiment: Dose response curve, temperature activation of the TRPV-1 receptor in transfected HEK-293T cells; format: cell-based; details: relative fluorescence at 50° C., HEK-293T cells transfected with rat TRPV-1, two independent experiments, ± standard deviation
T1 construct: expressed in transfected cells; host or cells: HEK-293T
T1 sequence (O35433 whole entry): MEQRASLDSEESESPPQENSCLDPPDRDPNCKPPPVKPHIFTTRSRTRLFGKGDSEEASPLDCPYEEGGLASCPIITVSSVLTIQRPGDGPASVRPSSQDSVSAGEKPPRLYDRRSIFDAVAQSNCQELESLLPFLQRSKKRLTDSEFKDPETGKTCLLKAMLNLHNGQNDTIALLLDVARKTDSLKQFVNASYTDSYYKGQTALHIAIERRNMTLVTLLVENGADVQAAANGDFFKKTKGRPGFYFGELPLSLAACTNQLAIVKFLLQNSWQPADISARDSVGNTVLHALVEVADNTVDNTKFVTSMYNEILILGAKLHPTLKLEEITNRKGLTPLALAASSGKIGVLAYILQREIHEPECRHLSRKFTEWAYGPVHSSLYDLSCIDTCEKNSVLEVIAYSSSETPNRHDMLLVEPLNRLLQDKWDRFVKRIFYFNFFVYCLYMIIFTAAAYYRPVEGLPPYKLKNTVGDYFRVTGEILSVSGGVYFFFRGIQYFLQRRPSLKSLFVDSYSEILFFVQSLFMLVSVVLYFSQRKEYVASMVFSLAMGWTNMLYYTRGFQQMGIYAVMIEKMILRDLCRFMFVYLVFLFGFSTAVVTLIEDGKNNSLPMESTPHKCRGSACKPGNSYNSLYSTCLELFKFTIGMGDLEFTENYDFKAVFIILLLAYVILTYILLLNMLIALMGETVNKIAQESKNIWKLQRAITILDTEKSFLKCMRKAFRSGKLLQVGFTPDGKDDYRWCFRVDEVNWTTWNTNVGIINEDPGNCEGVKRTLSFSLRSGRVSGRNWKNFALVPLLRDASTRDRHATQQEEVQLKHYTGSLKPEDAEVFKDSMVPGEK
Experimental: The synthesized compounds were evaluated in HEK-293T cell cultures transfected with cDNA from rat TRPV receptors. […] The influx of calcium was measured with a fluorescent probe, Fluo 4-AM, as in the presence of an antagonist the calcium influx is blocked by the inactivation of the TRPV-1 receptor and cellular fluorescence decreases.
The HEK-293T cells were cultured in a DMEM medium supplemented with 5% fetal bovine serum, 50 U/ml penicillin, […] streptomycin and 2 mM L-glutamine. The cultures were kept at 37°, in a 5% CO2 environment, with 80% relative humidity.
The HEK-293T cells were transfected with rat TPRV-1 pcDNA3, 97 μOpti-MEM and 3 μL of Lipofectamine 2000 were added to a reaction tube and to a second tube 1 μg of DNA and one volume of Opti-MEM were added to complete 100 μL. Both tubes were incubated for 10 minutes, after which they were mixed and incubated for another 15 minutes.
After 48 hours of transfection the cells were treated with 200 μL of trypsin, left to incubate for 5 minutes at room temperature, then gently pipetted and transposed to a 15 ml tube. After being centrifuged at a speed of 6,000 rpm for 10 minutes, the cells were re-suspended in 1 ml of Ringer medium, adding 1 μl of Fluo-4AM 1000×, and incubated at 37° C. for half an hour. After being centrifuged and washed with pH 7.34 PBS 1× to remove the excess probe the cell pellet was re-suspended in 1.5 ml of Ringer medium.
Once the rat TRPV-1 receptor had been transfected, Fluo-4 AM charged HEK 293T cells were plated out in 48-well plates at a cellular density of 50,000 cells per well, with a transfection percentage of 40-50%. Subsequently 2 μL/well of each assayed compound were added and the cells left to incubate at room temperature for 5-10 minutes before the execution of the experiment by temperature. The fluorescence measurements were then read on a real time PCR system that allows an increment of 1° C. every 35 seconds from 36° C. to 55° C. for compounds and from 22-56° C. for transfected cells in absence of compounds. Reading of the fluorescence measurement was done using a FAM filter ([…]). […] The values were then normalized, the data being expressed as relative fluorescence, which is the ratio between the fluorescence variation and the base line.
An assay was carried out on temperature activation of the TRPV-1 receptor by incubating the transfected and Fluo-4AM charged HEK-293T cells in the presence of different concentrations of each compound assayed: 1 μM; 0.1 μM; 0.01 μM; 0.003 μM; 0.001μM; 0.0003 μM, 0.0001 μM y 0.00001 μM. The relative fluorescence data obtained at 50° C. was then used to calculate the fluorescence ratio, which is presented as normalized in relation to the relative fluorescence at initial concentration. In this way, the fluorescence ratios obtained through two independent experiments were averaged and expressed with the respective standard deviation.

TRPV1 receptor = details: cited from earlier work; for selectivity for the TRPV-1 receptor: literature statement
[1] = literature statement; cited from earlier work
[2] = literature statement; cited from earlier work; remark: listed apart in the source
[3] = literature statement; cited from earlier work; remark: listed apart in the source
[4] = 1,3,4-thiadiazole alkylamide derivatives
[5] = literature value, read-out: half maximal inhibitory concentration (IC50), TRPV1 antagonist
[6] = read-out: half maximal inhibitory concentration (IC50), TRPV1 antagonist

With `O=C(/C=C/c1ccc(O)cc1)/C=C/c1ccc(O)cc1` [n, (1E, 4E)-1,5-(4-hydroxyphenyl) penta-1,4-dien-3-one] the IC50 (rat TRPV-1 receptor; chalcone derivatives) was 0.184 ± 0.023 nM.
`CCCCCCCCC(=O)Nc1nnc(-c2cc(I)c(O)c(OC)c2)s1` [a, N-[5-(4-hydroxy-5-methoxy-3-iodophenyl)-1,3,4-thiadiazole-2-yl]-nonamide] gave an IC50 (rat TRPV-1 receptor; [4]) of 0.046 ± 0.004 nM.
For `Oc1cc2c(cc1O)CN(C(=S)NCCc1ccc(Cl)cc1)CCC2` [capsazepine], the “selectivity for the TRPV-1 receptor” value (TRPV1 receptor) is listed as “low selectivity”, the IC50 (TRPV1 receptor; [5]) is listed as 56.2 nM and the metabolic stability [1] is listed as “metabolically unstable”.
In the case of `CCCCCCCCC(=O)NCc1cc(OC)c(O)cc1I` [6-iodononivamide], the IC50 (TRPV1 receptor; [6]) is listed as 126 nM.
In the case of `[La]` [lanthanum], the “selectivity for the TRPV-1 receptor” value (TRPV1 receptor) is given as “lack selectivity” and the “concentration at which activity is presented” value (TRPV1 receptor; non-competitive antagonist, blocks the ionic channel, literature value) is given as no less than 100 µM.
With `CCCCCCCC(=O)Nc1nnc(-c2ccc(O)c(OC)c2)s1` [d, N-[5-(4-hydroxy-3-methoxyfenil)-1,3,4-thiadiazole-2-yl]-octanamide] the IC50 (rat TRPV-1 receptor; [4]) was 1.09 ± 0.497 nM.
For `CCCCCCCCC(=O)NCc1cc(I)c(O)c(OC)c1` [5-iodononivamide], the IC50 (TRPV1 receptor; [6]) is listed as 10 nM.
For `CCCCCC(=O)Nc1nnc(-c2ccc(O)c(OC)c2)s1` [h, N-[5-(4-hydroxy-3-methoxyfenil)-1,3,4-thiadiazole-2-yl]-hexanamide], the IC50 (rat TRPV-1 receptor; [4]) was 0.298 ± 0.026 nM.
Compound `CCCCCCCCC(=O)Nc1nnc(-c2ccc(O)c(OC)c2)s1` [b, N-[5-(4-hydroxy-3-methoxyphenyl)-1,3,4-thiadiazole-2-yl]-nonamide] has an IC50 (rat TRPV-1 receptor; [4]) of 0.145 ± 0.051 nM.
For `O=C(/C=C/c1ccccc1)c1ccc(Br)cc1` [i], the IC50 (rat TRPV-1 receptor; chalcone derivatives) was 1.02 ± 0.206 nM.
In the case of `CC(C)(C)c1ccc(/C=C/C(=O)Nc2ccc3c(c2)OCCO3)cc1` [(E)-3-(4-t-butylphenyl)-N-(2,3-dihydrobenzo[b][1,4]dioxin-6-yl)acrylamide], the IC50 (TRPV1 receptor; literature value, read-out: antagonistic activity IC50) is listed as 79 nM.
`COc1cc(C=C(Cl)C(=O)c2ccccc2)ccc1O` (stereo in doubt) [q, (2E)-chloro-3-(4-hydroxy-3-methoxyphenyl)-1-phenyl prop-2-en-1-one] showed an IC50 (rat TRPV-1 receptor; chalcone derivatives) of 0.257 ± 0.016 nM.
For `C=C(C)[C@]12C[C@@H](C)[C@@]34O[C@](Cc5ccccc5)(O[C@@H]1[C@@H]3C=C(COC(=O)Cc1cc(I)c(O)c(OC)c1)C[C@]1(O)C(=O)C(C)=C[C@@H]41)O2` [5-iodoresiniferatoxin], the IC50 (TRPV1 receptor; [5]) is listed as 0.4 nM.
For `C=C(C)[C@]12C[C@@H](C)[C@@]34O[C@](Cc5ccccc5)(O[C@@H]1[C@@H]3C=C(COC(=O)Cc1ccc(O)c(OC)c1)C[C@]1(O)C(=O)C(C)=C[C@@H]41)O2` [resiniferatoxin], the “agonist potency relative to capsaicin” value (TRPV1 receptor) is given as 10 times.
`O=C(/C=C/c1ccccc1)/C=C/c1ccccc1` [m, (1E, 4E)-1,5-diphenyl penta-1,4-dien-3-one] gave an IC50 (rat TRPV-1 receptor; chalcone derivatives) of 7.55 ± 1.9 nM.
In the case of `COc1ccc(/C=C/C(=O)c2ccc(Br)cc2)cc1` [j, (2E)-1-(4-bromophenyl)-3-(4-methoxyphenyl) prop-2-en-1-one], the IC50 (rat TRPV-1 receptor; chalcone derivatives) is reported as 3.89 ± 0.225 nM.
For `N.N.N.N.N.N.N.N.N.N.N.N.N.N.[Cl-].[Cl-].[Cl-].[Cl-].[Cl-].[Cl-].[O-2].[O-2].[Ru+3].[Ru+3].[Ru+4]` [ruthenium red], the “selectivity for the TRPV-1 receptor” value (TRPV1 receptor) is given as “lack selectivity” and the IC50 (TRPV1 receptor; non-competitive antagonist, blocks the ionic channel, literature value, read-out: antagonistic activity IC50) is given as 170 nM.
Compound `CCCCCCC(=O)Nc1nnc(-c2cc(I)c(O)c(OC)c2)s1` [e, N-[5-(4-hydroxy-5-methoxy-3-iodophenyl)-1,3,4-thiadiazole-2-yl]heptanamide] has an IC50 (rat TRPV-1 receptor; [4]) of 1.263 ± 0.009 nM.
For `CC(C)(C)c1ccc(NC(=O)N2CCN(c3ncccc3Cl)CC2)cc1` [BCTC, N-(4-tertiarybutylphenyl)-4-(3-cholorphyridin-2-yl)tetrahydropyrazine-1(2H)-carbox-amide], the IC50 (TRPV1 receptor; depending on the type of species (rat, mouse or human) of the TRPV1 receptor, literature value, read-out: half maximal inhibitory concentration (IC50), TRPV1 antagonist) is given as 2 to 6 nM, the metabolic stability [1] is given as “low” and the half-life [2] is given as “short”. For the same compound, the oral bioavailability [2] was “moderate” and the aqueous solubility [3] was “poor”.
